Experimental data published in BigSolDB 2.1.

A solubility (mole fraction) (in 1,4-dioxane, 288.15 K) of 0.00281, a solubility (mole fraction) (in 1,4-dioxane, 293.15 K) of 0.00326 and a solubility (mole fraction) (in 1,4-dioxane, 298.15 K) of 0.00345 were found for `CC(=O)Nc1ccc(C(=O)O)cc1` in this work. The solubility (mole fraction) (in 1,4-dioxane, 303.15 K) was 0.00394, the solubility (mole fraction) (in 1,4-dioxane, 308.15 K) was 0.00446 and the solubility (mole fraction) (in 1,4-dioxane, 313.15 K) was 0.00491. It also gave a solubility (mole fraction) (in 1,4-dioxane, 318.15 K) of 0.00577, a solubility (mole fraction) (in 1,4-dioxane, 323.15 K) of 0.00639 and a solubility (mole fraction) (in 1,4-dioxane, 328.15 K) of 0.00698. The solubility (mole fraction) (in acetic acid, 293.15 K) was 0.00404, the solubility (mole fraction) (in acetic acid, 298.15 K) was 0.00486 and the solubility (mole fraction) (in acetic acid, 303.15 K) was 0.00554. It also gave a solubility (mole fraction) (in acetic acid, 308.15 K) of 0.00625, a solubility (mole fraction) (in acetic acid, 313.15 K) of 0.007 and a solubility (mole fraction) (in acetic acid, 318.15 K) of 0.00782. The solubility (mole fraction) (in acetic acid, 323.15 K) was 0.00894, the solubility (mole fraction) (in acetic acid, 328.15 K) was 0.00963 and the solubility (mole fraction) (in acetic acid, 333.15 K) was 0.0111. The solubility (mole fraction) (in acetone, 283.15 K) was 0.00302, the solubility (mole fraction) (in acetone, 288.15 K) was 0.00338 and the solubility (mole fraction) (in acetone, 293.15 K) was 0.00384. The solubility (mole fraction) (in acetone, 298.15 K) was 0.00454, the solubility (mole fraction) (in acetone, 303.15 K) was 0.00538 and the solubility (mole fraction) (in acetone, 308.15 K) was 0.00635. The solubility (mole fraction) (in acetone, 313.15 K) was 0.00709, the solubility (mole fraction) (in acetone, 318.15 K) was 0.00804 and the solubility (mole fraction) (in acetone, 323.15 K) was 0.00913. For the same compound, the solubility (mole fraction) (in acetonitrile, 283.15 K) was 0.000293, the solubility (mole fraction) (in acetonitrile, 288.15 K) was 0.000405 and the solubility (mole fraction) (in acetonitrile, 293.15 K) was 0.000433. For the same compound, the solubility (mole fraction) (in acetonitrile, 298.15 K) was 0.000515, the solubility (mole fraction) (in acetonitrile, 303.15 K) was 0.000653 and the solubility (mole fraction) (in acetonitrile, 308.15 K) was 0.000803. The solubility (mole fraction) (in acetonitrile, 313.15 K) was 0.000943, the solubility (mole fraction) (in acetonitrile, 318.15 K) was 0.00107 and the solubility (mole fraction) (in acetonitrile, 323.15 K) was 0.00132. For the same compound, the solubility (mole fraction) (in ethanol, 283.15 K) was 0.00586, the solubility (mole fraction) (in ethanol, 288.15 K) was 0.00674 and the solubility (mole fraction) (in ethanol, 293.15 K) was 0.0075. The solubility (mole fraction) (in ethanol, 298.15 K) was 0.00834, the solubility (mole fraction) (in ethanol, 303.15 K) was 0.00921 and the solubility (mole fraction) (in ethanol, 308.15 K) was 0.0101. It also gave a solubility (mole fraction) (in ethanol, 313.15 K) of 0.0114, a solubility (mole fraction) (in ethanol, 318.15 K) of 0.0126 and a solubility (mole fraction) (in ethanol, 323.15 K) of 0.014. The solubility (mole fraction) (in isobutanol, 283.15 K) was 0.00351, the solubility (mole fraction) (in isobutanol, 288.15 K) was 0.00456 and the solubility (mole fraction) (in isobutanol, 293.15 K) was 0.00519. It also gave a solubility (mole fraction) (in isobutanol, 298.15 K) of 0.00601, a solubility (mole fraction) (in isobutanol, 303.15 K) of 0.00696 and a solubility (mole fraction) (in isobutanol, 308.15 K) of 0.00822. It also gave a solubility (mole fraction) (in isobutanol, 313.15 K) of 0.00912, a solubility (mole fraction) (in isobutanol, 318.15 K) of 0.0103 and a solubility (mole fraction) (in isobutanol, 323.15 K) of 0.0113. For the same compound, the solubility (mole fraction) (in isopropanol, 283.15 K) was 0.00546, the solubility (mole fraction) (in isopropanol, 288.15 K) was 0.00663 and the solubility (mole fraction) (in isopropanol, 293.15 K) was 0.00713. For the same compound, the solubility (mole fraction) (in isopropanol, 298.15 K) was 0.00796, the solubility (mole fraction) (in isopropanol, 303.15 K) was 0.009 and the solubility (mole fraction) (in isopropanol, 308.15 K) was 0.00986. The solubility (mole fraction) (in isopropanol, 313.15 K) was 0.011, the solubility (mole fraction) (in isopropanol, 318.15 K) was 0.012 and the solubility (mole fraction) (in isopropanol, 323.15 K) was 0.0137. For the same compound, the solubility (mole fraction) (in methanol, 283.15 K) was 0.006, the solubility (mole fraction) (in methanol, 288.15 K) was 0.00663 and the solubility (mole fraction) (in methanol, 293.15 K) was 0.00738. The solubility (mole fraction) (in methanol, 298.15 K) was 0.00839, the solubility (mole fraction) (in methanol, 303.15 K) was 0.00941 and the solubility (mole fraction) (in methanol, 308.15 K) was 0.0103. The solubility (mole fraction) (in methanol, 313.15 K) was 0.0115, the solubility (mole fraction) (in methanol, 318.15 K) was 0.0126 and the solubility (mole fraction) (in methanol, 323.15 K) was 0.0141. The solubility (mole fraction) (in n-butanol, 283.15 K) was 0.00486, the solubility (mole fraction) (in n-butanol, 288.15 K) was 0.00552 and the solubility (mole fraction) (in n-butanol, 293.15 K) was 0.00599. The solubility (mole fraction) (in n-butanol, 298.15 K) was 0.00722, the solubility (mole fraction) (in n-butanol, 303.15 K) was 0.00812 and the solubility (mole fraction) (in n-butanol, 308.15 K) was 0.00974. It also gave a solubility (mole fraction) (in n-butanol, 313.15 K) of 0.0108, a solubility (mole fraction) (in n-butanol, 318.15 K) of 0.0122 and a solubility (mole fraction) (in n-butanol, 323.15 K) of 0.0136. It also gave a solubility (mole fraction) (in n-pentanol, 283.15 K) of 0.00507, a solubility (mole fraction) (in n-pentanol, 288.15 K) of 0.00554 and a solubility (mole fraction) (in n-pentanol, 293.15 K) of 0.00607. The solubility (mole fraction) (in n-pentanol, 298.15 K) was 0.00659, the solubility (mole fraction) (in n-pentanol, 303.15 K) was 0.00741 and the solubility (mole fraction) (in n-pentanol, 308.15 K) was 0.00844. It also gave a solubility (mole fraction) (in n-pentanol, 313.15 K) of 0.00938, a solubility (mole fraction) (in n-pentanol, 318.15 K) of 0.0115 and a solubility (mole fraction) (in n-pentanol, 323.15 K) of 0.0138. The solubility (mole fraction) (in n-propanol, 283.15 K) was 0.0048, the solubility (mole fraction) (in n-propanol, 288.15 K) was 0.00548 and the solubility (mole fraction) (in n-propanol, 293.15 K) was 0.00608. It also gave a solubility (mole fraction) (in n-propanol, 298.15 K) of 0.007, a solubility (mole fraction) (in n-propanol, 303.15 K) of 0.00792 and a solubility (mole fraction) (in n-propanol, 308.15 K) of 0.00883. It also gave a solubility (mole fraction) (in n-propanol, 313.15 K) of 0.00986, a solubility (mole fraction) (in n-propanol, 318.15 K) of 0.0113 and a solubility (mole fraction) (in n-propanol, 323.15 K) of 0.0127. The solubility (mole fraction) (in sec-butanol, 283.15 K) was 0.00515, the solubility (mole fraction) (in sec-butanol, 288.15 K) was 0.00602 and the solubility (mole fraction) (in sec-butanol, 293.15 K) was 0.00666. It also gave a solubility (mole fraction) (in sec-butanol, 298.15 K) of 0.00796, a solubility (mole fraction) (in sec-butanol, 303.15 K) of 0.00936 and a solubility (mole fraction) (in sec-butanol, 308.15 K) of 0.0107. It also gave a solubility (mole fraction) (in sec-butanol, 313.15 K) of 0.0122, a solubility (mole fraction) (in sec-butanol, 318.15 K) of 0.0136 and a solubility (mole fraction) (in sec-butanol, 323.15 K) of 0.015.
